From patent publication US8088806B2 (Achillion Pharmaceuticals, Inc., priority 2005, dated 2012)

Test system: HCV replicon
Experiment: Replicon based assay of HCV replication inhibition (NPT ELISA)
Assay type: cell-based, Hepatitis C virus
Details: Hepatitis C virus, replicon based assay of HCV replication inhibition; Table IV; read-out: Activity
Outline: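 NPT (neomycin phosphotransferase) content, proportional to replicon replication, quantified by capture ELISA on day four. Before that, replicon-bearing Huh-7 cells in G418-free screening medium were exposed three days at 37° C to compound, typically six doses from 10 to 0.03 micromolar, with equal DMSO across wells.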

Row | SMILES | EC50 [nM]
1 | Fc1sc(Nc2ccc(OCCCC3CCCC3)c(C(F)(F)F)c2)nc1-c1cccnc1 [compound 945, N-(4-(3-cyclopentylpropoxy)-3-(trifluoromethyl)phenyl)-5-fluoro-4-(pyridin-3-yl)thiazol-2-amine] | < 1000
2 | CCCCCCCCOc1ccc(Nc2nc(-c3cnc(OC)nc3)c(F)s2)cc1C(F)(F)F [compound 946, 5-fluoro-N-(3-(trifluoromethyl)-4-(octyloxy)phenyl)-4-(2-methoxypyrimidin-5-yl)thiazol-2-amine] | < 1000
3 | Fc1ccc(CCCCOc2ccc(Nc3nc(-c4cccnc4)cs3)cc2C(F)(F)F)cc1 [compound 947, N-(4-(4-(4-fluorophenyl)butoxy)-3-(trifluoromethyl)phenyl)-4-(pyridin-3-yl)thiazol-2-amine] | < 1000
4 | Cc1ccc(C#CCCOc2ccc(Nc3nc(-c4cccnc4)cs3)cc2C(F)(F)F)cc1 [compound 948, N-(4-(4-p-tolylbut-3-ynyloxy)-3-(trifluoromethyl)phenyl)-4-(pyridin-3-yl)thiazol-2-amine] | < 1000
5 | Cc1cccc(C#CCCOc2ccc(Nc3nc(-c4cccnc4)cs3)cc2C(F)(F)F)c1 [compound 949, N-(4-(4-m-tolylbut-3-ynyloxy)-3-(trifluoromethyl)phenyl)-4-(pyridin-3-yl)thiazol-2-amine] | < 1000
6 | CCCCCOc1ccc(Nc2nc(-c3cccnc3)c(F)s2)cc1C(F)(F)F [compound 950, 5-fluoro-N-(3-(trifluoromethyl)-4-(pentyloxy)phenyl)-4-(pyridin-3-yl)thiazol-2-amine] | < 1000
7 | CCCCCCCCS(=O)(=O)c1ccc(Nc2nc(-c3cccnc3)cs2)cc1 [compound 951, N-(4-(octylsulfonyl)phenyl)-4-(pyridin-3-yl)thiazol-2-amine] | < 1000
8 | CCCCCCCCS(=O)(=O)c1ccc(Nc2nc(-c3cccnc3)cs2)cc1C(F)(F)F [compound 952, N-(3-(trifluoromethyl)-4-(octylsulfonyl)phenyl)-4-(pyridin-3-yl)thiazol-2-amine] | < 1000
9 | CCCCCCCS(=O)(=O)CCc1ccc(Nc2nc(-c3cccnc3)cs2)cc1 [compound 953, N-(4-(2-(heptylsulfonyl)ethyl)phenyl)-4-(pyridin-3-yl)thiazol-2-amine] | 1000 to 10000
